The record followed here is US9630896B2, “2,5-dialkyl-4-H/halo/ether-phenol compounds” (Tansna Therapeutics Inc, priority 2013, dated 2017).

In data set [1] the test system is 6 Hz 32 mA Epilepsy Model (electrically induced psychomotor seizure). Briefly: Minimal clonic seizure (6 Hz, 32 mA) test. Format: in vivo, Mouse. As to conditions: for animals protected/animals tested: 6 Hz 32 mA, Mouse, IP; for ED50: Mus musculus, ip, 6 Hz 32 mA dose response (Test 7-2), mice. The source says: (§1) 1. Minimal Clonic Seizure (6 Hz, 32 mA or 44 mA) Test
(§2) Test compounds are pre-administered to mice via i.p. injection. At varying times, individual mice (four per time point) are challenged with sufficient current delivered through corneal electrodes to elicit a psychomotor seizure in 97% of animals (32 mA or 44 mA for 3 s) (Toman J E P, Everett G M, Richards R K: The Search for New Drugs against Epilepsy. Texas Reports on Biology and Medicine 1952; 10:96-104). Untreated mice will display seizures characterized by a minimal clonic phase followed by stereotyped, automatistic behaviors described originally as being similar to the aura of human patients with partial seizures. Animals not displaying this behavior are considered protected. The test compounds are evaluated quantitatively by measuring the responses at varying doses at a determined time of peak effect (TPE).

The subject of data set [2] is MES Model (maximal electroshock seizure). Briefly: Maximal electroshock seizure (MES) test. The note with it: Mouse, IP. Format: in vivo. Here is the method:
3. Maximal Electroshock Seizure (MES) Test
MES test is performed as in the Minimal Clonic Seizure (6 Hz) test, but the MES test utilizes a current of 50 mA (mice) or 150 mA (rats), frequency of 50-60 Hz, and a stimulation time of 0.2 seconds. Upon stimulation, untreated test subjects display immediate severe tonic seizure (including maximal extension of legs) and the body becomes stiffened for roughly 10-15 seconds. Next, clonic seizures start (including shaking of body and paddling movements of the hind limbs) and may last 20-30 seconds (Castel-Branco M M, Alves G L, Figueiredo I V, Falcao A C, Caramona M M: The Maximal Electroshock Seizure (MES) Model in the Preclinical Assessment of Potential New Antiepileptic Drugs. Methods and Findings in Experimental and Clinical Pharmacology 2009; 31:101-06). Test subjects that display reduced or eliminated symptoms of MES-type seizures during and/or after stimulation are considered protected.

Data set [3] concerns minimal muscular or neurological impairment (rotorod). Briefly: Acute toxicity - minimal motor impairment (rotorod). Format: in vivo. As to conditions: for Toxicity Ratio: Mouse. The source says: 4. Acute Toxicity-Minimal Motor Impairment
To assess a compound's undesirable side effects (toxicity), animals are monitored for overt signs of impaired neurological or muscular function. In mice, the rotorod (Dunham N W, Miya T S: A Note on a Simple Apparatus for Detecting Neurological Deficit in Rats and Mice. Journal of the American Pharmaceutical Association 1957; 46:208-09), procedure is used to disclose minimal muscular or neurological impairment. When a mouse is placed on a rod that rotates at a speed of 6 rpm, the animal can maintain its equilibrium for long periods of time. The animal is considered toxic if it falls off this rotating rod three times during a 1-min period. In rats, minimal motor deficit is indicated by ataxia, which is manifested by an abnormal, uncoordinated gait. Rats used for evaluating toxicity are examined before the test drug is administered, since individual animals may have peculiarities in gait, equilibrium, placing response, etc., which might be attributed erroneously to the test substance.

The subject of data set [4] is Corneal Kindled Mouse (Stage 5 seizures). Briefly: Corneal kindled mouse (focal seizures) - Test 26. The format is in vivo. The note with it: IP, TPE 0.5 hrs. An excerpt: 2. Corneal Kindling (Focal Seizures)
Mice are kindled electrically with 3 sec stimulation, 8 mA, 60 Hz, and corneal electrodes to a criterion of 10 consecutive Stage 5 seizures (facial clonus and head nodding progressing to forelimb clonus, and finally rearing and falling accompanied by a generalized clonic seizure as described by Racine (Racine R J: Modification of Seizure Activity by Electrical Stimulation. II. Motor Seizure. Electroen Clin Neuro 1972; 32:281-94). Stage 5 is generally reached after twice daily stimulation for 8 days. With continued stimulation once a day, animals usually progress to a reproducible Stage 5 after 10-14 additional days. At least 72 hours after the mice have been kindled, the test substance is administered either intraperitoneal (i.p.) or per os (p.o.) and, at the previously determined TPE, each animal is given the electrical stimulus indicated above. Following stimulation, the animals are observed for the presence or absence of the rearing and falling criteria of a Stage 5 seizure. Treated animals not displaying a Stage 3, 4, or 5 seizure are considered protected. The dose of the test substance is varied between the limits of 0 and 100% efficacy, and the ED50 and 95% confidence intervals calculated by probit analysis. Mean values and the S.E.M. are calculated for the length of clonus and seizure duration and p values are determined by the Student's t-test.

In data set [5] the test system is 6 Hz 32 mA Epilepsy Model (electrically induced psychomotor seizure). The data set can be described thus: Minimal clonic seizure (6 Hz, 32 mA) test. Format: in vivo. The note with it: Mouse, Oral, 100 mg/kg, TPE N/A.
In data set [6] the test system is 6 Hz 44 mA Epilepsy Model (electrically induced psychomotor seizure). Briefly: Minimal clonic seizure (6 Hz, 44 mA) test. Format: in vivo. The note with it: Mouse, IP, 100 mg/kg.
Source text: as §1, §2

Setting [7] is: MES screen table, IP, 100 mg/kg, TPT N/A.
Setting [8] is: Test 7-1 table, IP, 100 mg/kg, TPT N/A.
The mark [9] stands for this setting: Test 7-1 table, IP, 30 mg/kg, TPT NA.
Where [10] appears, read: Test 7-1 table, IP, 300 mg/kg, TPT 0.5 hrs.
Setting [11] is: Test 7-3 table, IP, 100 mg/kg, TPT N/A.

Bounds are passed on as bounds.

Turning to `Cc1cc(Br)c(C(C)C)cc1O` [Ex. 9, 4-bromo-5-isopropyl-2-methyl phenol], the animals protected/animals tested is on record as 3/4 in data set [1] (100 mg/kg, TPE 0.5 hrs); 1/4 in data set [2] (100 mg/kg, TPE 0.25 hrs); 0/4 in data set [5]. In data set [1] (TPE 0.5 hrs), this compound registered a median effective dose (ED50) of 19 mg/kg. The “Toxicity Ratio” value in data set [3] (setting [7]) is given as 0/8; in data set [3] (setting [8]) it was 0/4; in data set [3] (Test 7-1 table, Oral, 100 mg/kg, TPT N/A), 0/4. In data set [3] (mouse, in vivo, intraperitoneal, Test 7-2 table, TPT 6 hrs), this compound returned a TD50 at 6 hrs of 398 mg/kg. In addition, the “Average Seizure Score” value in data set [4] (19 mg/kg) was determined as 3.75. The “Seizure Ratio” value in data set [4] (19 mg/kg) is listed as 1/4.
Regarding `Cc1cc(Br)c(C(C)(C)C)cc1O` [Ex. 25, 4-Bromo-5-tert-butyl-2-methyl-phenol], the animals protected/animals tested was 2/4 in data set [1] (30 mg/kg, TPE 0.5 hrs); 2/4 in data set [1] (100 mg/kg, TPE 0.5 hrs); 4/4 in data set [1] (300 mg/kg, TPE 2 hrs). Further, the entries for the “Toxicity Ratio” value in data set [3] (setting [9]), in data set [3] (setting [8]) and in data set [3] (setting [10]) were 0/8, 0/8 and 4/8, respectively.
Consider `CCc1cc(Br)c(C(C)C)cc1O` [Ex. 64, 4-Bromo-2-ethyl-5-isopropyl-phenol], for which the animals protected/animals tested in data set [1] (30 mg/kg, TPE 0.5 hrs) is reported as 1/4; in data set [1] (100 mg/kg, TPE 0.5 hrs) it was 3/4; in data set [1] (300 mg/kg, TPE 0.5 hrs), 4/4; in data set [2] (30 mg/kg, TPE NA), 0/4; in data set [2] (100 mg/kg, TPE 0.5 hrs), 1/4; in data set [2] (300 mg/kg, TPE 0.5 hrs), 2/4. In addition, the animals protected/animals tested in data set [6] (TPE 0.25 hrs) is 1/4. Further, the “Toxicity Ratio” value in data set [3] (MES screen table, IP, 30 mg/kg, TPT NA) is 0/8; in data set [3] (setting [7]), 0/8; in data set [3] (MES screen table, IP, 300 mg/kg, TPT 0.5 hrs), 6/8; in data set [3] (setting [9]), 0/8; in data set [3] (setting [8]) it was 0/8; in data set [3] (setting [10]), 6/8. In data set [3] (setting [11]), the “Toxicity Ratio” value was 0/4.
As to `CCCc1ccc(C(C)C)cc1O` [Ex. 95, 5-Isopropyl-2-propyl-phenol], the animals protected/animals tested is 3/4 in data set [1] (10 mg/kg, TPE 0.5 hrs); 0/4 in data set [1] (30 mg/kg, TPE 0.5 hrs); 3/4 in data set [1] (300 mg/kg, TPE 0.5 hrs); 0/4 in data set [2] (30 mg/kg, TPE 0.5 hrs); 0/4 in data set [2] (100 mg/kg, TPE 0.5 hrs); 1/4 in data set [2] (300 mg/kg, TPE 0.5 hrs). The “Toxicity Ratio” value in data set [3] (Test 7-1 table, IP, 10 mg/kg, TPT 0.5 hrs) is reported as 1/8; in data set [3] (Test 7-1 table, IP, 30 mg/kg, TPT 0.5 hrs), 0/8; in data set [3] (setting [10]) it was 3/8.
With `Cc1cc(O)c(C(C)C)cc1Br` [Ex. 132, 4-Bromo-2-isopropyl-5-methyl-phenol], the animals protected/animals tested in data set [1] (100 mg/kg, TPE 0.5 hrs) is listed as 3/4; in data set [2] (100 mg/kg, TPE 1 hrs) it was 2/4; in data set [6] (TPE 2 hrs), 2/4. In addition, in data set [1] (TPE 0.5 hrs), it took a dose of 28 mg/kg to reach the 50% effect level (ED50). The “Toxicity Ratio” value is on record as 1/8 in data set [3] (MES screen table, IP, 100 mg/kg, TPT 0.5 hrs); 0/4 in data set [3] (setting [8]); 0/4 in data set [3] (setting [11]). For the same compound, in data set [3] (mouse, in vivo, intraperitoneal, Test 7-2 table, TPT 4 hrs), the TD50 at 4 hrs was over 200 mg/kg. In data set [4] (28 mg/kg), the “Average Seizure Score” value is 4.5. The “Seizure Ratio” value in data set [4] (28 mg/kg) is given as 1/4.
Consider `CC(C)c1cc(O)c(C(C)(C)C)cc1Br` [Ex. 204, 4-Bromo-2-tert-butyl-5-isopropyl-phenol], for which the animals protected/animals tested was 2/4 in data set [1] (100 mg/kg, TPE 0.5 hrs) and 1/4 in data set [2] (100 mg/kg, TPE 0.25 hrs). Also, the results for the “Toxicity Ratio” value in data set [3] (setting [7]) and in data set [3] (setting [8]) were 0/8 and 0/4, respectively.
